Assay [1] concerns the target T1, Ct-FDH (carboxy-terminal ALDH domain of 10-formyltetrahydrofolate dehydrogenase, Aldh1l1) (Rattus norvegicus, UniProt P28037, C707S).
T1 sequence (P28037 400-902 C707S): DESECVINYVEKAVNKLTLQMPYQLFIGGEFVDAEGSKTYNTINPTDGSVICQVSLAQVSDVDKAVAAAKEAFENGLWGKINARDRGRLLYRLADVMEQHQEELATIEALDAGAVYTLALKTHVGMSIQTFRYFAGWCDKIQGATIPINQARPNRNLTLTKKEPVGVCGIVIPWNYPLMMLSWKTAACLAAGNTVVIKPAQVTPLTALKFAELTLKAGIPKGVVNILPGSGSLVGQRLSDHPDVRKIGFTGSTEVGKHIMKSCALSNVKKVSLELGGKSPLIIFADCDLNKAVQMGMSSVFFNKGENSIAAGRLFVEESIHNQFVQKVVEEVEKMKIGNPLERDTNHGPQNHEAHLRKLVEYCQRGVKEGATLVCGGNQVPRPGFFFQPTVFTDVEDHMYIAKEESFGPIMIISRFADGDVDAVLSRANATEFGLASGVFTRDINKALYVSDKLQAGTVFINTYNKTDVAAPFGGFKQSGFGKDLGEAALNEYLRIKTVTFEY
The assay can be described thus: quenching of tryptophan fluorescence. It is filed as binding.

The target in assay [2] is T2, Ct-FDH (carboxy-terminal ALDH domain of 10-formyltetrahydrofolate dehydrogenase, Aldh1l1) (Rattus norvegicus, UniProt P28037).
T2 sequence (P28037 400-902): T1 sequence (P28037 400-902 C707S) with S308C
The assay can be described thus: quenching of tryptophan fluorescence. It is filed as binding.

Substitutions are numbered along the chain they refer to.

In general, Kd refers to the free concentration of one partner at which half of the binding sites on the other are occupied at equilibrium, for simple one-to-one binding.

For the compound `NC(=O)c1ccc[n+]([C@@H]2O[C@H](COP(=O)(O)OP(=O)(O)OC[C@H]3O[C@@H](n4cnc5c(N)ncnc54)[C@H](OP(=O)(O)O)[C@@H]3O)[C@@H](O)[C@H]2O)c1` [NADP^+], in assay [1], binding was characterised by a dissociation constant (Kd) of 11 ± 1.5 µM.
`NC(=S)c1ccc[n+]([C@@H]2O[C@H](COP(=O)(O)OP(=O)(O)OC[C@H]3O[C@@H](n4cnc5c(N)ncnc54)[C@H](OP(=O)(O)O)[C@@H]3O)[C@@H](O)[C@H]2O)c1` [thio-NADP^+] returned a Kd in assay [2] of 17 ± 0.8 µM.

The record behind these values is publication PMC3602205 (Chemico-biological interactions, 2013).
